Common to all, as to type: in vivo
The test system of assay [1] is blackgrass (Alopecurus myosuroides). The assay can be described thus: Test A postemergence, blackgrass. Particulars: Postemergence, 0 to 100 scale (0 no effect, 100 complete control). Summed up: (§1)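 Greenhouse pot test in a loam–sand blend; compounds delivered in a non-phytotoxic solvent carrying a surfactant, applied either as a directed spray to soil at seeding or over seedlings 2 to 10 cm high with one to two leaves.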

Assay [2] relates to Ryegrass, Italian (Italian ryegrass, Lolium multiflorum). Nature of the assay: Test A preemergence, Ryegrass, Italian. Particulars: Preemergence; for Ryegrass, Italian plant response rating: 125 g ai/ha, visual injury on 0 to 100 scale (0 no effect, 100 complete control), approximately 10 days; for Plant response rating, Ryegrass, Italian: 0 to 100 scale (0 no effect, 100 complete control). In short, it runs like this: as §1

Assay [3] deals with ragweed (common ragweed, Ambrosia artemisiifolia). The assay can be described thus: Test A preemergence, ragweed. Particulars: Preemergence; for Ragweed plant response rating: 125 g ai/ha, visual injury on 0 to 100 scale (0 no effect, 100 complete control), approximately 10 days; for Plant response rating, Ragweed: 0 to 100 scale (0 no effect, 100 complete control). Summed up: as §1

In assay [4] the test system is barnyardgrass (Echinochloa crus-galli). The assay can be described thus: Test A preemergence, barnyardgrass. Particulars: Preemergence; for Barnyardgrass plant response rating: 125 g ai/ha, visual injury on 0 to 100 scale (0 no effect, 100 complete control), approximately 10 days; for Plant response rating, Barnyardgrass: 0 to 100 scale (0 no effect, 100 complete control). Summed up:
as §1

The subject of assay [5] is kochia (Bassia scoparia). Nature of the assay: Test A preemergence, kochia. The following applies: Preemergence; for Kochia plant response rating: 125 g ai/ha, visual injury on 0 to 100 scale (0 no effect, 100 complete control), approximately 10 days; for Plant response rating, Kochia: 0 to 100 scale (0 no effect, 100 complete control). In short, it runs like this: as §1

In assay [6] the test system is barnyardgrass (Echinochloa crus-galli). The assay can be described thus: Test A postemergence, barnyardgrass. The following applies: Postemergence, 0 to 100 scale (0 no effect, 100 complete control). In short, it runs like this:
(§2)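 Directed soil spray at planting gave the preemergence treatment, while foliar application to one- to two-leaf seedlings (2–10 cm) gave the postemergence one; pots held a loam and sand mixture and chemicals were carried in a non-phytotoxic solvent with surfactant.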

The test system of assay [7] is kochia (Bassia scoparia). The assay can be described thus: Test A postemergence, kochia. Particulars: Postemergence, 0 to 100 scale (0 no effect, 100 complete control). In short, it runs like this:
as §1

The test system of assay [8] is wheat (Triticum aestivum). Nature of the assay: Test A postemergence, wheat. The following applies: Postemergence, 0 to 100 scale (0 no effect, 100 complete control). In short, it runs like this: as §2
In assay [9] the test system is pigweed (Amaranthus retroflexus). Nature of the assay: Test A postemergence, pigweed. Particulars: Postemergence, 0 to 100 scale (0 no effect, 100 complete control). In short, it runs like this: as §1
The subject of assay [10] is Ryegrass, Italian (Italian ryegrass, Lolium multiflorum). The assay can be described thus: Test A postemergence, Ryegrass, Italian. Particulars: Postemergence, 0 to 100 scale (0 no effect, 100 complete control). In short, it runs like this:
as §1

Another assay has as its system corn (Zea mays). The assay can be described thus: Test A postemergence, corn. Particulars: Postemergence, 0 to 100 scale (0 no effect, 100 complete control). Summed up: as §1
For assay [11], the system named is Foxtail, Giant (giant foxtail, Setaria faberi). The assay can be described thus: Test A preemergence, Foxtail, Giant. The following applies: Preemergence; for Foxtail, Giant plant response rating: 125 g ai/ha, visual injury on 0 to 100 scale (0 no effect, 100 complete control), approximately 10 days; for Plant response rating, Foxtail, Giant: 0 to 100 scale (0 no effect, 100 complete control). Summed up:
as §1

In assay [12] the test system is pigweed (Amaranthus retroflexus). Nature of the assay: Test A preemergence, pigweed. Particulars: for Pigweed plant response rating: 125 g ai/ha, visual injury on 0 to 100 scale (0 no effect, 100 complete control), approximately 10 days; for Plant response rating, Pigweed: 0 to 100 scale (0 no effect, 100 complete control). In short, it runs like this:
as §2

Assay [13] deals with ragweed (common ragweed, Ambrosia artemisiifolia). The assay can be described thus: Test A postemergence, ragweed. Particulars: Postemergence, 0 to 100 scale (0 no effect, 100 complete control). In short, it runs like this:
as §1

In assay [14] the test system is galium (catchweed bedstraw, Galium aparine). Nature of the assay: Test A postemergence, galium. Particulars: Postemergence, 0 to 100 scale (0 no effect, 100 complete control). In short, it runs like this: as §2
The test system of assay [15] is Foxtail, Giant (giant foxtail, Setaria faberi). Nature of the assay: Test A postemergence, Foxtail, Giant. The following applies: Postemergence, 0 to 100 scale (0 no effect, 100 complete control). In short, it runs like this: as §1
Where [16] appears, read: 125 g ai/ha, visual injury approx. 10 days.
Where [17] appears, read: 500 g ai/ha, visual injury, approx. 10 days.
The mark [18] stands for this setting: 1000 g ai/ha, visual injury, approx. 10 days.

`Cc1cc(C)c(C(=O)N2CC(C)OC(C)C2)cc1NS(=O)(=O)C(F)(F)F` (stereo not drawn) [Compound 9]: the “Plant response rating, Blackgrass” value in assay [1] (setting [16]) and in assay [1] (setting [17]) was 30 in each case. The “Ryegrass, Italian plant response rating” value in [2] worked out at 90. Also, the figures for the “Plant response rating, Ryegrass, Italian” value in assay [2] (500 g ai/ha), in assay [10] (setting [16]) and in assay [10] (setting [17]) were 100, 70 and 80, respectively. The “Ragweed plant response rating” value in [3] is 90. Besides, the “Plant response rating, Ragweed” value in [3] (500 g ai/ha) came out at 90; in assay [13] (setting [16]), 70; in assay [13] (setting [17]) it was 80. Also, the “Barnyardgrass plant response rating” value in [4] is 100. Besides, the “Plant response rating, Barnyardgrass” value came to 100 in assay [4] (500 g ai/ha), 80 in assay [6] (setting [16]) and 90 in [6] (setting [17]). Besides, the “Kochia plant response rating” value in the assay with kochia (Bassia scoparia) [5] is 70. Moreover, the entries for the “Plant response rating, Kochia” value in the assay on kochia (Bassia scoparia) [5] (500 g ai/ha), in the assay on kochia (Bassia scoparia) [7] (setting [16]) and with kochia (Bassia scoparia) [7] (setting [17]) were 90, 10 and 30, respectively. Further, the figures for the “Plant response rating, Wheat” value in assay [8] (setting [16]) and in [8] (setting [17]) were 60 and 70, respectively. In addition, the “Plant response rating, Pigweed” value in [9] (setting [16]) is reported as 60; in assay [9] (setting [17]) it was 80; in assay [12] (500 g ai/ha) it was 80. In addition, the “Plant response rating, Corn” value worked out at 0 in the assay with corn (Zea mays) (setting [16]) and 70 in the assay with corn (Zea mays) (setting [17]). For the same compound, the “Foxtail, Giant plant response rating” value in assay [11] amounted to 80. For the same compound, the “Plant response rating, Foxtail, Giant” value amounted to 100 in assay [11] (500 g ai/ha), 20 in assay [15] (setting [16]) and 90 in assay [15] (setting [17]). Also, the “Pigweed plant response rating” value in assay [12] is given as 30. Besides, the “Plant response rating, Galium” value in assay [14] (setting [16]) was 80; in [14] (setting [17]) it was 90.

As to `Cc1cc(C)c(C(=O)N2CCN(C)CC2)cc1NS(=O)(=O)C(F)(F)F` [Compound 10], in [1] (setting [18]), the “Plant response rating, Blackgrass” value stood at 0. Also, the “Plant response rating, Ryegrass, Italian” value in [2] (1000 g ai/ha) was determined as 90; in assay [10] (setting [18]), 60. For the same compound, the “Plant response rating, Ragweed” value was determined as 90 in assay [3] (1000 g ai/ha) and 80 in assay [13] (setting [18]). Further, the “Plant response rating, Barnyardgrass” value amounted to 40 in [4] (1000 g ai/ha) and 10 in assay [6] (setting [18]). For the same compound, the “Plant response rating, Kochia” value with kochia (Bassia scoparia) [5] (1000 g ai/ha) worked out at 60; in the assay on kochia (Bassia scoparia) [7] (setting [18]), 40. Also, in assay [8] (setting [18]), the “Plant response rating, Wheat” value was determined as 0. Moreover, the “Plant response rating, Pigweed” value in assay [9] (setting [18]) was found to be 80; in assay [12] (1000 g ai/ha), 100. For the same compound, the “Plant response rating, Corn” value in the assay with corn (Zea mays) (setting [18]) was found to be 10. The “Plant response rating, Foxtail, Giant” value in [11] (1000 g ai/ha) was determined as 80; in [15] (setting [18]) it was 20. In addition, the “Plant response rating, Galium” value in [14] (setting [18]) is listed as 80.

Consider `Cc1cc(C)c(C(=O)N2CCC(C#N)CC2)cc1NS(=O)(=O)C(F)(F)F` [Compound 11], for which the “Plant response rating, Blackgrass” value in assay [1] (setting [18]) was found to be 50. The “Plant response rating, Ryegrass, Italian” value stood at 0 in [2] (1000 g ai/ha) and 70 in [10] (setting [18]). Also, the “Plant response rating, Ragweed” value in assay [3] (1000 g ai/ha) and in assay [13] (setting [18]) was 80 in each case. The “Plant response rating, Barnyardgrass” value in [4] (1000 g ai/ha) is 100; in [6] (setting [18]), 90. Besides, the “Plant response rating, Kochia” value in the assay on kochia (Bassia scoparia) [5] (1000 g ai/ha) is 90; in the assay on kochia (Bassia scoparia) [7] (setting [18]) it was 60. For the same compound, the “Plant response rating, Wheat” value in assay [8] (setting [18]) amounted to 80. The “Plant response rating, Pigweed” value in assay [9] (setting [18]) and in [12] (1000 g ai/ha) was 100 throughout. Moreover, in the assay with corn (Zea mays) (setting [18]), the “Plant response rating, Corn” value was determined as 60. Moreover, the results for the “Plant response rating, Foxtail, Giant” value in assay [11] (1000 g ai/ha) and in assay [15] (setting [18]) were 100 and 90, respectively. Besides, the “Plant response rating, Galium” value in [14] (setting [18]) was found to be 90.

Take `Cc1cc(Cl)c(NS(=O)(=O)C(F)(F)F)cc1C(=O)N1CCC(C#N)CC1` [Compound 17]: the “Plant response rating, Blackgrass” value in assay [1] (setting [16]) is 0; in assay [1] (setting [17]) it was 30. In addition, in assay [2], the “Ryegrass, Italian plant response rating” value is reported as 80. Moreover, the “Plant response rating, Ryegrass, Italian” value is on record as 100 in assay [2] (500 g ai/ha), 0 in [10] (setting [16]) and 70 in assay [10] (setting [17]). Moreover, the “Ragweed plant response rating” value in [3] was determined as 80. In addition, the “Plant response rating, Ragweed” value in assay [3] (500 g ai/ha) is listed as 80; in [13] (setting [16]), 80; in assay [13] (setting [17]), 90. In addition, the “Barnyardgrass plant response rating” value in [4] worked out at 100. In addition, the “Plant response rating, Barnyardgrass” value in assay [4] (500 g ai/ha) is recorded as 100; in assay [6] (setting [16]) it was 30; in assay [6] (setting [17]), 90. In addition, in the assay with kochia (Bassia scoparia) [5], the “Kochia plant response rating” value was determined as 70. Besides, the “Plant response rating, Kochia” value was 90 in the assay on kochia (Bassia scoparia) [5] (500 g ai/ha), 60 in the assay on kochia (Bassia scoparia) [7] (setting [16]) and 70 with kochia (Bassia scoparia) [7] (setting [17]). The “Plant response rating, Wheat” value is on record as 70 in [8] (setting [16]) and 60 in assay [8] (setting [17]). The “Plant response rating, Pigweed” value in assay [9] (setting [16]) worked out at 60; in [9] (setting [17]), 70; in assay [12] (500 g ai/ha), 100. The “Plant response rating, Corn” value with corn (Zea mays) (setting [16]) worked out at 10; with corn (Zea mays) (setting [17]) it was 20. Also, in assay [11], the “Foxtail, Giant plant response rating” value was 100. Further, the “Plant response rating, Foxtail, Giant” value in assay [11] (500 g ai/ha) is recorded as 100; in assay [15] (setting [16]), 90; in [15] (setting [17]), 90. In addition, in assay [12], the “Pigweed plant response rating” value stood at 90. Besides, the “Plant response rating, Galium” value in assay [14] (setting [16]) came to 80; in assay [14] (setting [17]), 90.
